{
  "source": "patent US7615646B2",
  "about": "“Chiral indole intermediates and their fluorescent cyanine dyes containing functional groups” (Carnegie Mellon University, priority 2002, dated 2009)",
  "data": [
    {"assay": "Measurement of pKa values of pH-sensitive cyanine dyes (fluorescence intensity versus pH)", "format": "physicochemical", "settings": "Cl on the unquaternized indolenine unit", "experimental": "(§1) The general method of pKa determination was performed as follows. Purified dye was dissolved in water to give a bulk stock solution (if necessary, a limited amount of acetonitrile was added to ensure solubility). By experiment, the volume of this stock solution that was required to be added to 10.0 ml of water+0.1% v/v trifluoroacetic acid, in order to give an absorbance of 0.5±0.02 at the dye peak wavelength, was determined. This volume of bulk stock solution was then added to 10.0 ml of water, to be used as the working stock solution.\n(§2) Aqueous phosphate buffers were prepared covering the region of pH 4-9 {see “Data for Biochemical Research”, p. 432, 3rd edition, R. M. C Dawson, D. C. Elliott, W. H. Elliott & K. M. Jones, 1987 Oxford University Press. Buffers outside the listed range were made by adding in orthophosphoric acid or sodium hydroxide}. Plastic fluorescence cuvettes were then charged with 3.5 ml of each buffer. A fixed volume of dye working stock solution (in the range 50-250 μl) was added to a cuvette of buffer, the solution mixed and the fluorescence signal measured immediately {Perkin Elmer LS55 fluorimeter, excitation 640 nm. Emission spectrum was scanned and fluorescence intensity value at 680 nm recorded}. This was repeated for all cuvettes. The graph of fluorescence intensity versus pH was plotted using PRISM, the data fitted to a sigmoidal dose-response curve and the pKa value extracted as the calculated IC50 value from the fitting.", "values": [
      {"molecule": "3-(5-carboxypentyl)-2-[(1E,3E,5E)-5-(7-chloro-3,3-dimethyl-5-sulfo-1,3-dihydro-2H-indol-2-ylidene)penta-1,3-dienyl]-3-methyl-5-sulfo-1-(4-sulfobutyl)-3H-indolium [Dye 4]", "lowering of dye pKa relative to dye 1": "~0.8 units"},
      {"molecule": "CC1(CCCCCC(=O)O)C(/C=C/C=C/C=C2/Nc3c(Cl)cc(Cl)cc3C2(C)C)=[N+](CCCCS(=O)(=O)[O-])c2ccc(S(=O)(=O)O)cc21", "note": "(stereo not shown) [Dye 2, 3-(5-carboxypentyl)-2-[(1E,3E,5E)-5-(5,7-dichloro-3,3-dimethyl-1,3-dihydro-2H-indol-2-ylidene)penta-1,3-dienyl]-3-methyl-5-sulfo-1-(4-sulfobutyl)-3H-indolium]", "lowering of dye pKa relative to dye 1": "~1.0 units"},
      {"molecule": "CC1(C)C(/C=C/C=C/C=C2/Nc3ccc(Cl)cc3C2(C)C)=[N+](CCCCS(=O)(=O)[O-])c2ccc(S(=O)(=O)O)cc21", "note": "[Dye 7, 2-[(1E,3E,5E)-5-(5-chloro-3,3-dimethyl-1,3-dihydro-2H-indol-2-ylidene)penta-1,3-dienyl]-3,3-dimethyl-5-sulfo-1-(4-sulfobutyl)-3H-indolium]", "lowering of dye pKa relative to dye 1": "0.3-0.4 units"}
    ]},
    {"assay": "Measurement of pKa values of pH-sensitive cyanine dyes (fluorescence intensity versus pH)", "format": "physicochemical", "settings": "observed in aqueous phosphate buffers via fluorescence; excitation 640 nm, emission 680 nm", "experimental": "as §1, §2", "values": [
      {"molecule": "CC1(C)C(/C=C/C=C/C=C2/Nc3ccc(S(=O)(=O)O)cc3C2(C)CCCCCC(=O)O)=[N+](CCCCS(=O)(=O)[O-])c2ccc(S(=O)(=O)O)cc21", "note": "(stereo not shown) [Dye 1, 2-{(1E,3E,5E)-5-[3-(5-carboxypentyl)-3-methyl-5-sulfo-1,3-dihydro-2H-indol-2-ylidene]penta-1,3-dienyl}-3,3-dimethyl-5-sulfo-1-(4-sulfobutyl)-3H-indolium]", "pKa": 7},
      {"molecule": "CC1(CCCCCC(=O)O)C(/C=C/C=C/C=C2/Nc3c(Cl)cc(Cl)cc3C2(C)C)=[N+](CCCCS(=O)(=O)[O-])c2ccc(S(=O)(=O)O)cc21", "note": "(stereo not shown) [Dye 2, 3-(5-carboxypentyl)-2-[(1E,3E,5E)-5-(5,7-dichloro-3,3-dimethyl-1,3-dihydro-2H-indol-2-ylidene)penta-1,3-dienyl]-3-methyl-5-sulfo-1-(4-sulfobutyl)-3H-indolium]", "pKa": 6.05},
      {"molecule": "CC1(CCCCCC(=O)O)C(/C=C/C=C/C=C2/Nc3c(Cl)cc(S(=O)(=O)O)cc3C2(C)C)=[N+](CCCCS(=O)(=O)[O-])c2ccc(S(=O)(=O)O)cc21", "note": "(stereo not shown) [Dye 4, 3-(5-carboxypentyl)-2-[(1E,3E,5E)-5-(7-chloro-3,3-dimethyl-5-sulfo-1,3-dihydro-2H-indol-2-ylidene)penta-1,3-dienyl]-3-methyl-5-sulfo-1-(4-sulfobutyl)-3H-indolium]", "pKa": 6.2},
      {"molecule": "CC1(C)C(/C=C/C=C/C=C2/Nc3ccc(S(=O)(=O)O)cc3C2(C)C)=[N+](CCCCS(=O)(=O)[O-])c2ccc(S(=O)(=O)O)cc21", "note": "[Dye 6, 2-[(1E,3E,5E)-5-(3,3-dimethyl-5-sulfo-1,3-dihydro-2H-indol-2-ylidene)penta-1,3-dienyl]-3,3-dimethyl-5-sulfo-1-(4-sulfobutyl)-3H-indolium]", "pKa": 7},
      {"molecule": "CC1(CCCCCC(=O)ON2C(=O)CCC2=O)C(/C=C/C=C/C=C2/Nc3c(Cl)cc(S(=O)(=O)O)cc3C2(C)C)=[N+](CCCCS(=O)(=O)[O-])c2ccc(S(=O)(=O)O)cc21", "note": "(stereo not shown) [Dye 16.3, 3-(5-Carboxypentyl)-2-[(1E,3E,5E)-5-(7-chloro-3,3-dimethyl-5-sulfo-1,3-dihydro-2H-indol-2-ylidene)penta-1,3-dienyl]-3-methyl-5-sulfo-1-(4-sulfobutyl)-3H-indolium, N-hydroxysuccinimidyl ester]", "pKa": 6.2},
      {"molecule": "CC1(C)C(/C=C/C=C/C=C2/Nc3ccc(S(=O)(=O)O)cc3C2(C)CCCCCC(=O)O)=[N+](CCCCS(=O)(=O)[O-])c2ccc(Cl)cc21", "note": "(stereo not shown) [Example 3]", "pKa": 7.44},
      {"molecule": "CC1(C)C(/C=C/C=C/C=C2/Nc3ccccc3C2(C)C)=[N+](CCCCS(=O)(=O)[O-])c2ccc(S(=O)(=O)O)cc21", "note": "[Example 5]", "pKa": 7},
      {"molecule": "CC1(C)C(/C=C/C=C/C=C2/Nc3ccc(Cl)cc3C2(C)C)=[N+](CCCCS(=O)(=O)[O-])c2ccc(S(=O)(=O)O)cc21", "note": "[Example 7]", "pKa": 6.65},
      {"molecule": "CC1(C)C(/C=C/C=C/C=C2/Nc3ccc(C#N)cc3C2(C)C)=[N+](CCCCS(=O)(=O)[O-])c2ccc(S(=O)(=O)O)cc21", "note": "[Example 8]", "pKa": 6.65},
      {"molecule": "CC1(C)C(/C=C/C=C/C=C2/Nc3ccc(S(=O)(=O)O)cc3C2(C)C)=[N+](CCCCS(=O)(=O)[O-])c2ccc(Cl)cc21", "note": "[Example 9]", "pKa": 7.36}
    ]}
  ]
}
